Test results reported in patent US6841519B1, “Isoxazoline derivatives and herbicides containing the same as the active ingredient” (Kumiai Chemical Industry Co., Ltd., priority 1999, dated 2005).

Assays:
[1] = test system: Setaria viridis (L.) Beauv. (Se); test: Test for herbicidal effect by upland field soil treatment (Test Example 2), Se; assay type: in vivo
How it was run: (§1)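 Echinochloa crus-galli and Setaria viridis were sown in upland field soil and covered, then the soil surface was sprayed with water-diluted wettable powder at 100 g active ingredient per 10 ares (100 liters per 10 ares). Plants were grown in a greenhouse and scored on a standard scale on day 21.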

[2] = test system: Scirpus juncoides Roxb. subsp. juncoides Roxb. (Sc); test: Test for herbicidal effect during breeding period by paddy field water treatment (Test Example 5), Sc; assay type: in vivo; details: paddy field water treatment at 2-leaf stage, 25 g/10 a active ingredient, 30th day
Protocol: (§2) [table] <Test Example 5> Test For Herbicidal Effect During Breeding Period By Paddy Field Water Treatment A paddy field soil was filled in a plastic pot of 100 cm^2 and subjected to puddling. Seeds of Monochoria vaginalis Presl (Mo) and Scirpus juncoides Roxb. subsp. juncoides Roxb. (Sc) were sowed; water was filled in a depth of 3 cm; and breeding was made. When Mo reached a 1-leaf stage and Sc reached a 2-leaf stage, wettable powders produced in accordance with the Formulation 1 were diluted with water and dropped on the water surface. […] Then, breeding was made in a greenhouse. At the 30th day from the treatment, the herbicidal effect of each wettable powder was examined in accordance with the standard shown in Table 40.

[3] = test system: Monochoria vaginalis Presl (Mo); test: Test for herbicidal effect during breeding period by paddy field water treatment (Test Example 5), Mo; assay type: in vivo; details: paddy field water treatment at 1-leaf stage, 25 g/10 a active ingredient, 30th day
Protocol: as §2

[4] = test system: Echinochloa crus-galli (L.) Beauv. var. crusgalli (Ec); test: Test for herbicidal effect by upland foliage treatment (Test Example 3); assay type: in vivo; details: 100 g/10 a active ingredient, examined at 14th day
How it was run: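 Potted upland-soil Ec seedlings grown 2 weeks in greenhouse, then foliage-sprayed with water-diluted wettable powder at 100 L per 10 ares, giving 100 g active ingredient per 10 ares. Herbicidal effect scored on a graded standard 14 days after treatment.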

[5] = test system: Echinochloa crus-galli (L.) Beauv. var. crusgall (Ec); test: Test for herbicidal effect by upland field soil treatment (Test Example 2), Ec; assay type: in vivo
How it was run: as §1

[6] = test system: Echinochloa oryzicola Vasing. (Eo); test: Test for herbicidal effect by paddy field soil treatment (Test Example 1); assay type: in vivo; details: application amount (active ingredient) 100 g/10 a, examined at the 21st day from the treatment, index per Table 40
How it was run: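 Eo seeds sown in puddled paddy soil under 3 cm water; next day a water-diluted wettable powder was dropped onto the water surface at 100 g active ingredient per 10 ares. Herbicidal effect scored on a standard scale 21 days after treatment, greenhouse-grown.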

[7] = test system: Polygonum lapathifolium L. subsp. nodosum (Pers.) Kitam. (Po); test: Test for herbicidal effect to broadleaf weeds by upland field soil treatment (Test Example 6), Po; assay type: in vivo; details: 25 g/10 a active ingredient, 30th day
Protocol: (§3) Test for herbicidal effect to broadleaf weeds by upland field soil treatment
(§4) An upland field soil was filled in a plastic pot of 80 cm^2. Seeds of Polygonum lapathifolium L. subsp. nodosum (Pers.) Kitam. (Po) and Chenopodium album L. (Ch) were sowed, followed by covering with the same soil. Wettable powders produced in accordance with the Formulation 1 were diluted with water and sprayed uniformly on the soil surface using a small sprayer, […] Then, breeding was made in a greenhouse. At the 30th day from the treatment, the herbicidal effect of each wettable powder was examined in accordance with the standard shown in Table 40.

[8] = test system: Chenopodium album L. (Ch); test: Test for herbicidal effect to broadleaf weeds by upland field soil treatment (Test Example 6), Ch; assay type: in vivo; details: 25 g/10 a active ingredient, 30th day
Protocol: as §3, §4

[9] = 100 g/10 a active ingredient, examined at 21st day
[10] = application amount (active ingredient) 100 g/10 a, examined at the 21st day from the treatment, index per Table 40

SMILES	Herbicidal effect to Se [1, 9]	Herbicidal effect to Sc [2]	Herbicidal effect to Mo [3]	Herbicidal effect to Ec [4]	Herbicidal effect to Ec [5, 9]	Herbicidal effect to Eo [6]	melting point [°C]	Herbicidal effect to Se [1, 10]	Herbicidal effect to Ec [5, 10]	Herbicidal effect to Po [7]	Herbicidal effect to Ch [8]
CC1(C)CC(S(=O)(=O)Cc2c(Cl)cccc2OCC(F)(F)F)=NO1 [Compound 1-567]	5 (A herbicidal effect or phytotoxicity of 90% or more)	5 (A herbicidal effect or phytotoxicity of 90% or more)	5 (A herbicidal effect or phytotoxicity of 90% or more)	4 (A herbicidal effect or phytotoxicity of 70% to less than 90%)	5 (A herbicidal effect or phytotoxicity of 90% or more)	5 (A herbicidal effect or phytotoxicity of 90% or more)	–	–	–	–	–
CC1(C)CC(S(C)(=O)=O)=NO1 [Compound 2-1, 3-methylsulfonyl-5,5-dimethyl-2-isoxazoline]	–	–	–	–	–	–	82 to 84	–	–	–	–
CC1(C)CC(SCc2c(F)cccc2F)=NO1 [Compound 1-38, 3-(2,6-difluorobenzylthio)-5,5-dimethyl-2-isoxazoline]	–	–	–	–	–	5 (A herbicidal effect or phytotoxicity of 90% or more)	77 to 80	4 (A herbicidal effect or phytotoxicity of 70% to less than 90%)	4 (A herbicidal effect or phytotoxicity of 70% to less than 90%)	–	–
CC1(C)CC(S(=O)(=O)Cc2ccccc2OC(F)(F)F)=NO1 [Compound 1-58]	–	5 (A herbicidal effect or phytotoxicity of 90% or more)	4 (A herbicidal effect or phytotoxicity of 70% to less than 90%)	5 (A herbicidal effect or phytotoxicity of 90% or more)	–	5 (A herbicidal effect or phytotoxicity of 90% or more)	–	5 (A herbicidal effect or phytotoxicity of 90% or more)	5 (A herbicidal effect or phytotoxicity of 90% or more)	–	–
CC1(C)CC(S(=O)(=O)Cc2c(F)cccc2F)=NO1 [Compound 1-39, 3-(2,6-difluorobenzylsulfonyl)-5,5-dimethyl-2-isoxazoline]	–	5 (A herbicidal effect or phytotoxicity of 90% or more)	5 (A herbicidal effect or phytotoxicity of 90% or more)	5 (A herbicidal effect or phytotoxicity of 90% or more)	–	5 (A herbicidal effect or phytotoxicity of 90% or more)	–	5 (A herbicidal effect or phytotoxicity of 90% or more)	5 (A herbicidal effect or phytotoxicity of 90% or more)	4 (A herbicidal effect or phytotoxicity of 70% to less than 90%)	5 (A herbicidal effect or phytotoxicity of 90% or more)
Cc1cc(C)c(C)c(CS(=O)(=O)C2=NOC(C)(C)C2)c1C [Compound 1-547]	5 (A herbicidal effect or phytotoxicity of 90% or more)	5 (A herbicidal effect or phytotoxicity of 90% or more)	5 (A herbicidal effect or phytotoxicity of 90% or more)	5 (A herbicidal effect or phytotoxicity of 90% or more)	5 (A herbicidal effect or phytotoxicity of 90% or more)	5 (A herbicidal effect or phytotoxicity of 90% or more)	–	–	–	–	–
CCc1ccccc1CS(=O)(=O)C1=NOC(C)(C)C1 [Compound 1-8]	–	4 (A herbicidal effect or phytotoxicity of 70% to less than 90%)	5 (A herbicidal effect or phytotoxicity of 90% or more)	5 (A herbicidal effect or phytotoxicity of 90% or more)	–	5 (A herbicidal effect or phytotoxicity of 90% or more)	–	5 (A herbicidal effect or phytotoxicity of 90% or more)	5 (A herbicidal effect or phytotoxicity of 90% or more)	–	–
CC(C)Oc1ccccc1CS(=O)(=O)C1=NOC(C)(C)C1 [Compound 1-49]	–	5 (A herbicidal effect or phytotoxicity of 90% or more)	5 (A herbicidal effect or phytotoxicity of 90% or more)	5 (A herbicidal effect or phytotoxicity of 90% or more)	–	5 (A herbicidal effect or phytotoxicity of 90% or more)	–	5 (A herbicidal effect or phytotoxicity of 90% or more)	5 (A herbicidal effect or phytotoxicity of 90% or more)	–	–
CC1(C)CC(S(=O)(=O)Cc2ccccc2C(F)(F)F)=NO1 [Compound 1-157]	–	5 (A herbicidal effect or phytotoxicity of 90% or more)	5 (A herbicidal effect or phytotoxicity of 90% or more)	5 (A herbicidal effect or phytotoxicity of 90% or more)	–	5 (A herbicidal effect or phytotoxicity of 90% or more)	–	5 (A herbicidal effect or phytotoxicity of 90% or more)	5 (A herbicidal effect or phytotoxicity of 90% or more)	–	–
